Entries after “also recorded” stand apart in the source; their conditions may differ. Square brackets hold non-standard residues; d marks the D form. Ends that are not written are not given here. dOrn = NCCC[C@@H](N)C(=O)O
Test system: microorganisms (e.g., bacteria, yeasts, fungi)
Test: Targeting peptide binding to target microorganisms (Table 3)
Conditions: data not shown

Substance | bacterial binding
DAANEA [BL-1] | no bacterial binding

Same assay, conditions: microorganism the targeting peptide binds; binding in aqueous buffers varied by peptide solubility, preferably 1x PBS

Substance | Target(s)
1T-272 (QLAPIDKQLKAVKKIAFYESESTAAKAVTVA; Peptide with targeting and/or antimicrobial activity) [Peptide 1T-272] | F. nucleatum; also recorded: S. mutans; also recorded: S. oralis; also recorded: S. sanguinis
1T-273 (YNEPNYKWLESYKIYKQRCEDRTGMYYTEET; Peptide with targeting and/or antimicrobial activity) [Peptide 1T-273] | F. nucleatum; also recorded: P. gingivalis; also recorded: T. denticola; also recorded: S. mitis; also recorded: S. mutans; also recorded: S. oralis
1T-274 (ETTTEINAIKLHRIKQRSPQGTRRVN; Peptide with targeting and/or antimicrobial activity) [Peptide 1T-274] | F. nucleatum; also recorded: S. mutans; also recorded: S. oralis; also recorded: S. sanguinis
1T-282 (ISLVFPAYT; Peptide with targeting and/or antimicrobial activity) [Peptide 1T-282] | F. nucleatum; also recorded: P. gingivalis; also recorded: S. gordonii; also recorded: S. mitis; also recorded: S. mutans; also recorded: S. oralis; also recorded: S. salivarious; also recorded: S. sanguinis
1T-286 (LGFFNNKADLVKADTERDNRMSSLKIKDL; Peptide with targeting and/or antimicrobial activity) [Peptide 1T-286] | S. sanguinis
1T-287 (KGYPLPFQYRLNNH; Peptide with targeting and/or antimicrobial activity) [Peptide 1T-287] | P. gingivalis; also recorded: T. denticola; also recorded: S. gordonii; also recorded: S. mitis; also recorded: S. mutans; also recorded: S. oralis; also recorded: S. salivarious; also recorded: S. sanguinis
1T-288 (RWVGGEPSADIYLSAKDTKT; Peptide with targeting and/or antimicrobial activity) [Peptide 1T-288] | F. nucleatum; also recorded: S. gordonii; also recorded: S. salivarious; also recorded: S. sanguinis
1T-289 (EPSADIYLSAKDTKT; Peptide with targeting and/or antimicrobial activity) [Peptide 1T-289] | F. nucleatum; also recorded: P. gingivalis; also recorded: S. gordonii; also recorded: S. mitis; also recorded: S. mutans; also recorded: S. oralis; also recorded: S. sanguinis
1T-291 (DMKIIKLYIKILSFLFIKYCNKKLNSVKLKA; Peptide with targeting and/or antimicrobial activity) [Peptide 1T-291] | A. naeslundii; also recorded: F. nucleatum; also recorded: P. gingivalis; also recorded: T. denticola; also recorded: S. mitis; also recorded: S. mutans; also recorded: S. oralis
1T-294 (YDKIADGVFKIGKRGVL; Peptide with targeting and/or antimicrobial activity) [Peptide 1T-294] | T. denticola
1T-295 (KYKLKKIIL; Peptide with targeting and/or antimicrobial activity) [Peptide 1T-295] | S. mitis; also recorded: S. salivarious; also recorded: S. sanguinis
1T-297 (RSLRLNNALTKLPKLWYNRIKEAFYAYNDYDK; Peptide with targeting and/or antimicrobial activity) [Peptide 1T-297] | A. naeslundii; also recorded: F. nucleatum; also recorded: T. denticola; also recorded: S. mitis; also recorded: S. mutans; also recorded: S. oralis
1T-301 (SKLPRVLDASLKL; Peptide with targeting and/or antimicrobial activity) [Peptide 1T-301] | F. nucleatum; also recorded: S. gordonii; also recorded: S. sanguinis
1T-304 (STAGEASRRTASEASRRTAAKLRG; Peptide with targeting and/or antimicrobial activity) [Peptide 1T-304] | P. gingivalis
CHA0 (D[dOrn]KTAA[dOrn]K; not fully specified (bridges)) | P. fluorescens
PF-014 (HPTDNKHN; Peptide with targeting and/or antimicrobial activity) | E. coli; also recorded: C. jeikeium
PF-016 (RKQYDDLSFNFLY; Peptide with targeting and/or antimicrobial activity) | S. epidermidis; also recorded: E. faecalis; also recorded: C. jeikeium
PF-018 (YYKTYFKEV; Peptide with targeting and/or antimicrobial activity) | E. coli; also recorded: C. jeikeium
PF-038 (MAYKDEGKETKFAVKGYKD; Peptide with targeting and/or antimicrobial activity) | M. luteus
PF-039 (MLEEKNKSL; Peptide with targeting and/or antimicrobial activity) | P. mirabilis; also recorded: C. jeikeium
PF-044 (KLKKYIHKPD; Peptide with targeting and/or antimicrobial activity) | S. epidermidis and M. luteus and MRSA and C. jeikeium
PF-047 (NQEPSLQQDKEQKDNKG; Peptide with targeting and/or antimicrobial activity) | S. mutans
PF-050 (SYYLKRREEKGK; Peptide with targeting and/or antimicrobial activity) | S. epidermidis; also recorded: M. luteus; also recorded: E. coli; also recorded: C. jeikeium
PF-054 (VSISRFIGGGHVFNGNNKRNL; Peptide with targeting and/or antimicrobial activity) | S. epidermidis; also recorded: E. coli
PF-055 (GHVFNGNNKRNL; Peptide with targeting and/or antimicrobial activity) | S. mutans
PF-060 (HSSHL; Peptide with targeting and/or antimicrobial activity) | E. coli; also recorded: C. albicans; also recorded: C. jeikeium
PF-062 (MKKKRINNDILGRMIYSSSIDKRNLYNLKYYE; Peptide with targeting and/or antimicrobial activity) | S. epidermidis and M. luteus and E. coli and P. aeruginosa and MRSA and S. pneumoniae and E. faecalis and C. jeikeium

Same assay, conditions: microorganism(s) the targeting peptide binds; binding in aqueous buffers depending on peptide solubility, preferably 1x PBS

Substance | Target(s)
AIEGVIKKGACFKLLRHEMF [PF-167] | S. epidermidis and E. coli and C. albicans and MRSA and C. jeikeium and C. jejuni
HIKETR (Peptide with targeting and/or antimicrobial activity) [PF-222] | S. epidermidis
MKKLVAALAVIVILTGCVYDPVNYDKIHDQEFQDHLRQNG [PF-252] | S. mutans
MLTSRKKRLKKIVEEQNKKDESI [PF-336] | S. mutans; also recorded: E. coli
PF-097 (QPTQGEQGTRPRRPTPMRGLLI; Peptide with targeting and/or antimicrobial activity) | C. jeikeium
PF-101 (DPVPERQEQACACHRTAKPGK; Peptide with targeting and/or antimicrobial activity) | S. mutans
PF-104 (ERTAVNDLWI; Peptide with targeting and/or antimicrobial activity) | MRSA and C. jeikeium
PF-130 (LQRSDEESMPRRHEKYS; Peptide with targeting and/or antimicrobial activity) | E. faecalis; also recorded: C. jeikeium; also recorded: C. jejuni
PF-131 (RRAAARTKGNRR; Peptide with targeting and/or antimicrobial activity) | S. epidermidis and E. coli and MRSA and C. jeikeium
PF-132 (RPGDGAAEQGRSR; Peptide with targeting and/or antimicrobial activity) | S. epidermidis; also recorded: C. jeikeium
PF-134 (GKAMKRQDCSAL; Peptide with targeting and/or antimicrobial activity) | S. epidermidis; also recorded: C. jeikeium
PF-138 (AVHHSLLFR; Peptide with targeting and/or antimicrobial activity) | S. epidermidis and M. luteus and P. mirabilis and E. coli and C. albicans and MRSA and C. jeikeium and C. jejuni
PF-141 (VVRRFQGM; Peptide with targeting and/or antimicrobial activity) | S. epidermidis and M. luteus and C. albicans and MRSA and C. jeikeium
PF-142 (GIDRGCQAAR; Peptide with targeting and/or antimicrobial activity) | S. mutans
PF-146 (GCGKRRIITKSASRDTR; Peptide with targeting and/or antimicrobial activity) | S. epidermidis and M. luteus and P. aeruginosa and C. albicans and MRSA and C. jeikeium
PF-147 (RRPRRRRSGHGQSASAA; Peptide with targeting and/or antimicrobial activity) | S. epidermidis and M. luteus and MRSA
PF-150 (EIQAKGTG; Peptide with targeting and/or antimicrobial activity) | S. epidermidis and MRSA
PF-151 (EEYPARVPLSGEDVTEARRH; Peptide with targeting and/or antimicrobial activity) | S. epidermidis and MRSA and E. faecalis and C. jeikeium
PF-152 (VGYFIWKDSHSRKG; Peptide with targeting and/or antimicrobial activity) | S. epidermidis and C. albicans and MRSA and E. faecalis and C. jeikeium
PF-154 (GIKKSKHPSTDDYVVKTTIDSL; Peptide with targeting and/or antimicrobial activity) | S. mutans
PF-155 (GRYGDDSKERQGRAQ; Peptide with targeting and/or antimicrobial activity) | C. jeikeium
PF-158 (VRLESRPADLPE; Peptide with targeting and/or antimicrobial activity) | S. epidermidis

Same assay, conditions: peptide binding in aqueous buffers varied by peptide solubility; preferably 1x PBS

Substance | Target(s) (microorganisms bound by the targeting peptide)
PEIIKIVSGLL [PF-758] | S. epidermidis and M. luteus and E. coli and MRSA and S. pneumoniae and E. faecalis and C. jeikeium
PF670 (TVIVAPMHSGV; Peptide with targeting and/or antimicrobial activity) | Mycobacteria spp

— patent publication US20110039762A1, “TARGETED ANTIMICROBIAL MOIETIES” (C3 JIAN, INC., priority 2009, published 2011)
